# In PMC10630452, “The tumor-enriched small molecule gambogic amide suppresses glioma by targeting WDR1-dependent cytoskeleton remodeling” (Signal Transduction and Targeted Therapy, 2023):
# Legend:
# F-actin = F-actin staining and G-actin/F-actin assay in T2-4 cells; assay type: cell-based; conditions: 50 nM jas with 0.3 μM GA-amide
# Method: F-actin isolation was performed according to the instructions of the G-actin/F-actin assay (Cytoskeleton, Inc.). Briefly, cells were lysed in LAS2 buffer (Cytoskeleton, Inc.). The lysates were centrifuged (5 min at 1000 rpm) to pellet undisrupted cells, and then 100 µl of the supernatant was ultracentrifuged at 37 °C (100,000 × g) for 1 h to separate F-actin from soluble G-actin. The F-actin pellet was solubilized by incubation in 100 μL of F-actin depolymerization buffer for 1 h. The soluble F-actin and G-actin fractions were subsequently analyzed by immunoblotting with a mouse monoclonal anti-actin antibody (Cytoskeleton, Inc.).
# Representative images of three wells are shown, and the scale bar represents 500 μm. h The apoptosis assay was conducted on T2-4 cells treated with DMSO, GA-amide (0.3 μM), jas (50 nM), and jas (50 nM jas was pretreated for 12 hours) in combination with GA-amide (0.3 μM) for 4 hours. The data were presented as the mean ± SEM (n = 3) and analyzed using one-way ANOVA analysis. Statistical significance is denoted as *P <0.05, **P <0.01, and ***P <0.001.
# subcutaneous glioma PDX = experiment: Subcutaneous PDX model of glioma (GBM1); assay type: in vivo, nude mice
# Method: (§1) Fig. 2 The BBB permeability and tumor suppressor ability of GA-amide compared with TMZ. GA-amide (a) or TMZ (b) concentration in the tumor area and normal brain tissue following a single injection of GA-amide (10 mg/kg, i.v.) or TMZ (10 mg/kg, i.v.). The data are presented as the means ± SEMs (n = 3). c Western blot analysis of the expression of TrkA in mouse tumor tissues (T) and normal brain tissues (N), n = 4. d Western blot analysis of glycosylated TrkA expression in human normal brain tissues (N) and glioma tissues of different grades. e Time curve of GA-amide and TMZ treatment in a cell viability assay (MTS) in T2-4, GSC2 and T12-1 cells. f–h A PDX mouse model was established, and the mice were treated with vehicle (control, n = 9), 2 mg/kg GA-amide (n = 9), 2 mg/kg GAC (n = 9) or […] TMZ (n = 8) by i.p. injection daily for 10 days. A summary photograph is presented in (f), statistical results in (g) and the body weights of mice in (h); the mean ± SEMs are shown. n.s: P ≥ 0.05, *P < 0.05, **P < 0.01 and ***P < 0.001 compared with the control group by one-way ANOVA at each time point
# Male nude mice aged 5–6 weeks were selected for establishment of the in vivo glioma mouse models. For the PDX models, the tumor sample will be soaked in HBSS solution on ice and transferred from the hospital to the laboratory. Patient-related information was shown in Supplementary Table 4). For the subcutaneous PDX models, the isometric fresh GBM tumor (GBM1) specimens were implanted s.c. into the flank of a nude mouse. Then, the mice were treated with GA-amide (2 mg/kg i.p.), gambogic acid (2 mg/kg i.p.), TMZ (65 mg/kg i.p., Selleck) or vehicle after the tumors grew to 100 mm^3. The mouse body weights were measured, and tumor volumes were calculated using the formula L × W^2/2. After treatment, the xenografts were harvested and photographed.
# [1] = BBB permeability assay in U87MG-SLC intracranial xenograft mice; assay type: in vivo, mouse; conditions: 10 mg/kg i.v., U87MG-SLC intracranial xenograft mice
# Method: as §1
# Mice bearing U87MG-SLC cell intracranial xenografts were injected with GA-amide (i.v.), and tissues from the brain tumor area and normal brain tissues were collected at different times after injection. […] The diagnostic product ions for GA-amide were detected at m/z 628.3/572.2.
# GSC2 and U87MG-SLC cells = experiment: Combination of GA-amide with Trk inhibitors, cell viability; assay type: cell-based; conditions: 48 hours
# Method: Supplementary Fig. 5 TrkA was not the functional target for GA-amide to inhibit glioma. a Western blot analyses of the TrkA and p-TrkA expression in GSC2 and U87MG-SLC cells with GA-amide treatment for 4 hours. b Western blot analyses of the p-TrkA expression in GSC2 with GA-amide treatment for different times. c, d The combination effects of GA-amide with GW441756, a TrkA inhibitor, or with K252a, an inhibitor of Trk family in GSC2 (c) and U87MG-SLC (d) (48 hours, n = 3).
# [2] = 60 mg/kg i.p. daily for 10 days
smiles,measurement,setting,value
"C/C1=C\[C@H](C)C[C@H](C)OC(=O)C[C@H](c2ccc(O)cc2)NC(=O)[C@@H](Cc2c(Br)[nH]c3ccccc23)N(C)C(=O)[C@H](C)NC(=O)[C@@H](C)C1 [jasplakinolide, reference compound]","effect of F-actin stabilization on GA-amide induced F-actin depolymerization, invasion inhibition and apoptosis",F-actin,significantly reversed
"CC(C)=CCC[C@]1(C)C=Cc2c(O)c3c(c(CC=C(C)C)c2O1)O[C@]12C(=C[C@@H]4C[C@H]1C(C)(C)O[C@@]2(C/C=C(/C)C(=O)O)C4=O)C3=O [GAC, gambogic acid, reference compound]",tumor volume versus control,subcutaneous glioma PDX; 2 mg/kg i.p. daily for 10 days,significantly decreased compared with those in the control group
"Cn1nnc2c(C(N)=O)ncn2c1=O [TMZ, temozolomide, reference compound]",body weight of mice,subcutaneous glioma PDX; [2],significantly decreased
same,tumor volume versus control,subcutaneous glioma PDX; [2],significantly decreased compared with those in the control group
same,concentration in the tumor area versus the nontumor area,[1],no discernible difference in its distribution between these regions
Cn1cc(/C=C2\C(=O)Nc3cccnc32)c2ccccc21 [GW441756],rescue of the inhibitory effect of GA-amide on GSCs,GSC2 and U87MG-SLC cells,neither the TrkA inhibitor GW441756 nor the Trk family inhibitor K252a[28] restored the inhibitory effect of GA-amide on GSCs
COC(=O)[C@@]1(O)C[C@H]2O[C@]1(C)n1c3ccccc3c3c4c(c5c6ccccc6n2c5c31)C(=O)NC4 [K252a],rescue of the inhibitory effect of GA-amide on GSCs,GSC2 and U87MG-SLC cells,neither the TrkA inhibitor GW441756 nor the Trk family inhibitor K252a[28] restored the inhibitory effect of GA-amide on GSCs
